The values that follow come from PubChem BioAssay AID328 (DTP/NCI, 2004).

Inconclusive results and toxic doses are left out.

The experiment has as its system BDF1 mice, P388 leukemia ip, median survival T/C. The experiment can be described thus: NCI In Vivo Anticancer Drug Screen. Data for tumor model P388 Leukemia (intraperitoneal) in B6D2F1 (BDF1) mice. To be noted: endpoint: median survival time, higher = longer survival. The procedure, abridged: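 Transplantable tumour in mice; compound vs vehicle dosing; survival scored; ratio of treated to control reported.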

[1] abbreviates: dose: 25.0 mg/kg/injection, schedule: Q04DX003 (ip), vehicle: saline.
The mark [2] stands for this setting: dose: 100.0 mg/kg/injection, schedule: Q04DX003 (ip), vehicle: saline.
Where [3] appears, read: dose: 25.0 mg/kg/injection, schedule: Q04DX003 (ip), vehicle: Klucel (hydroxypropylcellulose) (HPC).
[4] abbreviates: dose: 50.0 mg/kg/injection, schedule: Q04DX003 (ip), vehicle: Klucel (hydroxypropylcellulose) (HPC).
[5] abbreviates: dose: 100.0 mg/kg/injection, schedule: Q04DX003 (ip), vehicle: saline with Tween-80.
[6] abbreviates: dose: 100.0 mg/kg/injection, schedule: Q01DX009 (ip), vehicle: saline with Tween-80.
The mark [7] stands for this setting: dose: 200.0 mg/kg/injection, schedule: Q01DX009 (ip), vehicle: saline with Tween-80.
The mark [8] stands for this setting: dose: 25.0 mg/kg/injection, schedule: Q01DX009 (ip), vehicle: saline.
Where [9] appears, read: dose: 50.0 mg/kg/injection, schedule: Q01DX009 (ip), vehicle: saline.
The mark [10] stands for this setting: dose: 100.0 mg/kg/injection, schedule: Q01DX009 (ip), vehicle: saline.
Where [11] appears, read: dose: 50.0 mg/kg/injection, schedule: Q01DX009 (ip), vehicle: Klucel (hydroxypropylcellulose) (HPC).
The mark [12] stands for this setting: dose: 100.0 mg/kg/injection, schedule: Q01DX009 (ip), vehicle: Klucel (hydroxypropylcellulose) (HPC).
[13] abbreviates: dose: 200.0 mg/kg/injection, schedule: Q01DX009 (ip), vehicle: Klucel (hydroxypropylcellulose) (HPC).
[14] abbreviates: dose: 25.0 mg/kg/injection, schedule: Q04DX003 (ip), vehicle: saline with Tween-80.
Setting [15] is: dose: 50.0 mg/kg/injection, schedule: Q04DX003 (ip), vehicle: saline with Tween-80.
[16] abbreviates: dose: 25.0 mg/kg/injection, schedule: Q01DX009 (ip), vehicle: Klucel (hydroxypropylcellulose) (HPC).

Take `CCOC(=O)/C(C#N)=C\C=C\c1ccccc1`: the T/C by setting is: (dose: 100.0 mg/kg/injection, schedule: Q04DX003 (ip), vehicle: Klucel (hydroxypropylcellulose) (HPC)) 86 % of control; (dose: 200.0 mg/kg/injection, schedule: Q04DX003 (ip), vehicle: Klucel (hydroxypropylcellulose) (HPC)) 90 % of control; (dose: 400.0 mg/kg/injection, schedule: Q04DX003 (ip), vehicle: Klucel (hydroxypropylcellulose) (HPC)) 90 % of control.
On to `CCN1c2ccccc2C(Cl)(c2ccc(N(C)C)cc2)c2ccccc21`, for which the T/C (dose: 3.75 mg/kg/injection, schedule: Q01DX009 (ip), vehicle: saline) is 118 % of control; the T/C (dose: 6.25 mg/kg/injection, schedule: Q04DX003 (ip), vehicle: saline) is 100 % of control; the T/C (dose: 7.5 mg/kg/injection, schedule: Q01DX009 (ip), vehicle: saline) is 118 % of control; the T/C (dose: 12.5 mg/kg/injection, schedule: Q04DX003 (ip), vehicle: saline) is 116 % of control; the T/C under setting [1] is 116 % of control.
As to `[O-][n+]1c(/C=C/c2cccc3ccccc23)cccc1/C=C/c1cccc2ccccc12`, the T/C is, setting by setting: (dose: 50.0 mg/kg/injection, schedule: Q01DX005 (ip), vehicle: saline + Tween-80 + alcohol) 94 % of control; (dose: 100.0 mg/kg/injection, schedule: Q01DX005 (ip), vehicle: saline + Tween-80 + alcohol) 96 % of control; (dose: 200.0 mg/kg/injection, schedule: Q01DX005 (ip), vehicle: saline + Tween-80 + alcohol) 96 % of control.
Regarding `CC1(C)CCc2c(ccc(C(=O)/C=C\c3ccccc3)c2O)O1`, the T/C (dose: 1.25 mg/kg/injection, schedule: Q01DX009 (ip), vehicle: Klucel (hydroxypropylcellulose) (HPC)) is 109 % of control; the T/C (dose: 2.5 mg/kg/injection, schedule: Q01DX009 (ip), vehicle: Klucel (hydroxypropylcellulose) (HPC)) was 107 % of control; the T/C (dose: 5.0 mg/kg/injection, schedule: Q01DX009 (ip), vehicle: Klucel (hydroxypropylcellulose) (HPC)) was 102 % of control; the T/C (dose: 10.0 mg/kg/injection, schedule: Q01DX009 (ip), vehicle: Klucel (hydroxypropylcellulose) (HPC)) was 107 % of control; the T/C (dose: 20.0 mg/kg/injection, schedule: Q01DX009 (ip), vehicle: Klucel (hydroxypropylcellulose) (HPC)) is 100 % of control; the T/C (dose: 40.0 mg/kg/injection, schedule: Q01DX009 (ip), vehicle: Klucel (hydroxypropylcellulose) (HPC)) is 91 % of control.
On to `C1CN(CC2COC(CN3CCOCC3)CO2)CCO1` (configuration not stated), for which the T/C is 114 % of control under setting [2]; 104 % of control (dose: 200.0 mg/kg/injection, schedule: Q04DX003 (ip), vehicle: saline); 104 % of control (dose: 400.0 mg/kg/injection, schedule: Q04DX003 (ip), vehicle: saline).
Regarding `CCCCn1c(Cl)c(/C=N\Nc2ccccc2[N+](=O)[O-])c2ccccc21`, under “dose: 200.0 mg/kg/injection, schedule: Q01DX001 (ip), vehicle: Klucel (hydroxypropylcellulose) (HPC)”, the T/C is 89 % of control.
For `Cc1c(C)c(CO)c(C)c(C)c1CO`, the T/C (dose: 8.0 mg/kg/injection, schedule: Q01DX009 (ip), vehicle: Klucel (hydroxypropylcellulose) (HPC)) is 96 % of control; the T/C (dose: 12.0 mg/kg/injection, schedule: Q01DX009 (ip), vehicle: Klucel (hydroxypropylcellulose) (HPC)) was 89 % of control; the T/C (dose: 12.0 mg/kg/injection, schedule: Q04DX003 (ip), vehicle: Klucel (hydroxypropylcellulose) (HPC)) was 104 % of control; the T/C (dose: 18.0 mg/kg/injection, schedule: Q01DX009 (ip), vehicle: Klucel (hydroxypropylcellulose) (HPC)) is 96 % of control; the T/C under setting [3] is 95 % of control; the T/C under setting [4] was 104 % of control.
Regarding `O=C(O)CNC(=O)C(Br)Cc1ccccc1` (configuration not stated), the T/C by setting is: under setting [5], 90 % of control; (dose: 200.0 mg/kg/injection, schedule: Q04DX003 (ip), vehicle: saline with Tween-80) 100 % of control; (dose: 400.0 mg/kg/injection, schedule: Q04DX003 (ip), vehicle: saline with Tween-80) 100 % of control.
For the molecule `CNC(=O)Oc1ccc2ccccc2c1`, the T/C reads like this: under setting [6], 111 % of control; under setting [7], 113 % of control; (dose: 400.0 mg/kg/injection, schedule: Q01DX009 (ip), vehicle: saline with Tween-80) 103 % of control.
With `NNC(=O)c1ccccn1`, the T/C was 92 % of control under setting [8], 100 % of control under setting [9], 100 % of control under setting [10] and 88 % of control under setting [2].
On to `COc1cc(C2c3cc4c(cc3C(O)C3COC(=O)C23)OCO4)cc(O)c1OC` (configuration not stated), for which the T/C (dose: 2.0 mg/kg/injection, schedule: Q01DX009 (ip), vehicle: saline) was 120 % of control and the T/C (dose: 4.0 mg/kg/injection, schedule: Q01DX009 (ip), vehicle: saline) is 105 % of control.
For `O=C(NN(c1ccc([N+](=O)[O-])cc1)c1ccc([N+](=O)[O-])cc1)c1ccccc1`, the T/C runs as follows: under setting [11], 100 % of control; under setting [12], 105 % of control; under setting [13], 105 % of control.
Regarding `O=C1OC(=O)c2c1ccc(Br)c2Br`, the T/C is, setting by setting: under setting [12], 100 % of control; under setting [13], 90 % of control; (dose: 400.0 mg/kg/injection, schedule: Q01DX009 (ip), vehicle: Klucel (hydroxypropylcellulose) (HPC)) 90 % of control.
For the molecule `O=C(Nc1ccc(C2=NCCCN2)cc1)Nc1cccc(C(=O)Nc2ccc(C3=NCCCN3)cc2)c1`, the T/C was 200 % of control (dose: 16.5 mg/kg/injection, schedule: Q01DX009 (ip), vehicle: saline with Tween-80) and 272 % of control (dose: 25.0 mg/kg/injection, schedule: Q01DX009 (ip), vehicle: saline with Tween-80).
`O=C(/C=C/c1ccncc1)c1cccc2ccccc12`: the T/C reads like this: (dose: 12.5 mg/kg/injection, schedule: Q01DX009 (ip), vehicle: saline) 102 % of control; under setting [8], 108 % of control; under setting [9], 100 % of control; under setting [10], 116 % of control.
For `CC(C)=CCCC(C)=C(C#N)C#N`, the T/C runs as follows: under setting [14], 107 % of control; under setting [15], 105 % of control; under setting [5], 107 % of control.
On to `COC(=O)CC12CC3(C)CC(C)(C1)CC(CC(=O)OC)(C3)C2`, for which the T/C is, setting by setting: (dose: 50.0 mg/kg/injection, schedule: Q01DX009 (ip), vehicle: saline with Tween-80) 102 % of control; under setting [6], 102 % of control; under setting [7], 117 % of control.
`O=C1N/C(=N\O)S/C1=C/c1ccc2c(c1)OCO2`: the T/C is 89 % of control (dose: 100.0 mg/kg/injection, schedule: Q01DX001 (ip), vehicle: saline with Tween-80); 95 % of control (dose: 200.0 mg/kg/injection, schedule: Q01DX001 (ip), vehicle: saline with Tween-80); 105 % of control (dose: 400.0 mg/kg/injection, schedule: Q01DX001 (ip), vehicle: saline with Tween-80).
Turning to `COc1cccc(C2N=NC3=C(CCCC3)N2O)c1O` (configuration not stated), the T/C is, setting by setting: under setting [16], 95 % of control; under setting [11], 87 % of control; under setting [13], 96 % of control.
For `O=COc1ccc([N+](=O)[O-])cc1`, the T/C reads like this: under setting [1], 95 % of control; (dose: 50.0 mg/kg/injection, schedule: Q04DX003 (ip), vehicle: saline) 100 % of control; under setting [2], 100 % of control.
With `O=C(CCCN1CCC(O)(c2cccc(C(F)(F)F)c2)CC1)c1ccc(F)cc1`, the T/C is 120 % of control (dose: 12.5 mg/kg/injection, schedule: Q01DX009 (ip), vehicle: Klucel (hydroxypropylcellulose) (HPC)); 112 % of control (dose: 12.5 mg/kg/injection, schedule: Q04DX003 (ip), vehicle: Klucel (hydroxypropylcellulose) (HPC)); 96 % of control (dose: 18.75 mg/kg/injection, schedule: Q04DX003 (ip), vehicle: Klucel (hydroxypropylcellulose) (HPC)); 114 % of control under setting [16]; 122 % of control under setting [3]; 117 % of control under setting [11]. In addition, the T/C runs as follows: under setting [4], 121 % of control; (dose: 150.0 mg/kg/injection, schedule: Q04DX003 (ip), vehicle: Klucel (hydroxypropylcellulose) (HPC)) 96 % of control.
On to `c1ccc(-n2nc3c(c2-c2ccc(OCCN4CCCC4)cc2)CCCc2ccccc2-3)cc1`, for which the T/C by setting is: under setting [14], 120 % of control; under setting [15], 120 % of control; under setting [5], 100 % of control.
